The results in this text go back to the NIST ThermoML archive (doi:10.1021/acs.jced.5b00857).

The conditions of data set [1]: Crystal; DTA.
Data set [2] can be described thus: Molar enthalpy of transition or fusion. The note with it: Crystal; DSC.

Numbers after ± are expanded uncertainties.

For `O=C1OC[C@H]2[C@@H]1N(Cc1ccccc1)C(=O)N2Cc1ccccc1`, the Normal melting temperature in data set [1] amounted to 118.70 ± 1.1 °C. In data set [2], the “Molar enthalpy of transition or fusion” value turned out to be 7.24 ± 0.454 kcal/mol.
